Experimental data taken from ChEMBL document CHEMBL4406839, “Design, synthesis and biological evaluation of a new series of thiazolyl-pyrazolines as dual EGFR and HER2 inhibitors” (Eur J Med Chem, 2019).

Experiments:
[1] = system: A549; test: Antiproliferative activity aganist human A549 cells incubated for 72 hrs by MTT assay; assay type: functional, cell-based; details: A549, 72 h
[2] = system: MCF7; test: Antiproliferative activity aganist human MCF7 cells incubated for 72 hrs by MTT assay; assay type: functional, cell-based; details: MCF7, 72 h
[3] = system: A-375; test: Antiproliferative activity aganist human A375 cells incubated for 72 hrs by MTT assay; assay type: functional, cell-based; details: A-375, 72 h
[4] = system: Jurkat; test: Antiproliferative activity aganist human Jurkat cells incubated for 72 hrs by MTT assay; assay type: functional, cell-based
[5] = system: PBMC; test: Cytotoxicity against human PBMC cells assessed as reduction in cell viability incubated for 72 hrs by MTT assay; assay type: cell-based
[6] = Selectivity index, ratio of IC50 for human PBMC cells to IC50 for human Jurkat cells; assay type: toxicity; details: PBMC cells and Jurkat cells, read-out: Ratio IC50
[7] = system: A549; test: Induction of apoptosis in human A549 cells at IC50 incubated for 24 hrs by Annexin V-FITC/ethidium homodimer 3 staining based fluorescence microscopic method relative to control; assay type: functional
[8] = system: A549; test: Induction of apoptosis in human A549 cells assessed as increase in apoptosis/necrosis cells at IC50 incubated for 24 hrs by Annexin V-FITC/ethidium homodimer 3 staining based fluorescence microscopic method relative to control; assay type: functional
[9] = system: A549; test: Induction of apoptosis in human A549 cells assessed as increase in necrosis cells at IC50 incubated for 24 hrs by Annexin V-FITC/ethidium homodimer 3 staining based fluorescence microscopic method relative to control; assay type: functional
[10] = system: MCF7; test: Induction of apoptosis in human MCF7 cells at IC50 incubated for 24 hrs by Annexin V-FITC/ethidium homodimer 3 staining based fluorescence microscopic method relative to control; assay type: functional
[11] = system: MCF7; test: Induction of apoptosis in human MCF7 cells assessed as increase in apoptosis/necrosis cells at IC50 incubated for 24 hrs by Annexin V-FITC/ethidium homodimer 3 staining based fluorescence microscopic method relative to control; assay type: functional
[12] = system: MCF7; test: Induction of apoptosis in human MCF7 cells assessed as increase in necrosis cells at IC50 incubated for 24 hrs by Annexin V-FITC/ethidium homodimer 3 staining based fluorescence microscopic method relative to control; assay type: functional
[13] = molecular target: Receptor tyrosine-protein kinase erbB-2 (Homo sapiens, UniProt P04626); test: Inhibition of recombinant human N-terminal GST-tagged HER2 (676 to end residues) expressed in baculovirus infected Sf9 insect cells using Poly (4:1 Glu, Tyr) peptide as substrate incubated for 1 hr by ADP-Glo assay
[14] = molecular target: Receptor tyrosine-protein kinase erbB-4 (Homo sapiens, UniProt Q15303); test: Inhibition of recombinant human N-terminal GST-tagged HER4 (682 to 993 residues) expressed in baculovirus infected Sf9 insect cells using Poly (4:1 Glu, Tyr) peptide as substrate incubated for 1 hr by ADP-Glo assay
[15] = molecular target: Insulin-like growth factor 1 receptor (Homo sapiens, UniProt P08069); test: Inhibition of recombinant human N-terminal His-tagged IGF1R (960 to end residues) expressed in baculovirus infected Sf9 insect cells using IGF1Rtide as substrate incubated for 1 hr by ADP-Glo assay
[16] = molecular target: Insulin receptor (Homo sapiens, UniProt P06213); test: Inhibition of recombinant human N-terminal GST-tagged INSR (1011 to end residues) expressed in baculovirus infected Sf9 insect cells using Axltide as substrate incubated for 1 hr by ADP-Glo assay
[17] = molecular target: Vascular endothelial growth factor receptor 2 (Homo sapiens, UniProt P35968); test: Inhibition of recombinant human N-terminal GST-tagged KDR (789 to end residues) expressed in baculovirus infected Sf9 insect cells using Poly (4:1 Glu, Tyr) peptide as substrate incubated for 1 hr by ADP-Glo assay
[18] = molecular target: Platelet-derived growth factor receptor alpha (Homo sapiens, UniProt P16234); test: Inhibition of recombinant human N-terminal GST-tagged PDGFRalpha (550 to end residues) expressed in baculovirus infected Sf9 insect cells using Poly (4:1 Glu, Tyr) peptide as substrate incubated for 1 hr by ADP-Glo assay
[19] = molecular target: Platelet-derived growth factor receptor beta (Homo sapiens, UniProt P09619); test: Inhibition of recombinant human N-terminal GST-tagged PDGFRbeta (557 to end residues) expressed in baculovirus infected Sf9 insect cells using Poly (4:1 Glu, Tyr) peptide as substrate incubated for 1 hr by ADP-Glo assay
[20] = molecular target: Epidermal growth factor receptor (Homo sapiens, UniProt P00533); test: Inhibition of recombinant human N-terminal GST-tagged EGFR (695 to end residues) expressed in baculovirus infected Sf9 insect cells using Poly (4:1 Glu, Tyr) peptide as substrate incubated for 1 hr by ADP-Glo assay

Chain of Insulin-like growth factor 1 receptor (P08069 31-736 limits assumed): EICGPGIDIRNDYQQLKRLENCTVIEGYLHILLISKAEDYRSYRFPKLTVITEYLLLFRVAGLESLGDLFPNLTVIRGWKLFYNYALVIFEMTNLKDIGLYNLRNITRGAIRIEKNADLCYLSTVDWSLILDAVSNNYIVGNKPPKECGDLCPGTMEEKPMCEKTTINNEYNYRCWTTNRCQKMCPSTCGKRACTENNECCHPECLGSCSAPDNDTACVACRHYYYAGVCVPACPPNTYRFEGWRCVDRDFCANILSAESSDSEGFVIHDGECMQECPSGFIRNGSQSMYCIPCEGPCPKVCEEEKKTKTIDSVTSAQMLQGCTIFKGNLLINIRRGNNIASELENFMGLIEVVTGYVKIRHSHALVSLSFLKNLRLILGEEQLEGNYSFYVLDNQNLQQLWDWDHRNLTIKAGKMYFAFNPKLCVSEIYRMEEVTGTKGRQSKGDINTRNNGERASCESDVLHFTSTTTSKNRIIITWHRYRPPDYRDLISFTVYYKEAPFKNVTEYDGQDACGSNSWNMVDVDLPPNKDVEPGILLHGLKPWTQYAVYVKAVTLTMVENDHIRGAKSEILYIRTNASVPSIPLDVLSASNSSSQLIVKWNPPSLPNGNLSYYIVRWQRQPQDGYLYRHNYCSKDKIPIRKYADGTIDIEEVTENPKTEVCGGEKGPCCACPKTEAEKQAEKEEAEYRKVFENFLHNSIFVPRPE
Chain of Insulin-like growth factor 1 receptor (P08069 741-1367 limits assumed): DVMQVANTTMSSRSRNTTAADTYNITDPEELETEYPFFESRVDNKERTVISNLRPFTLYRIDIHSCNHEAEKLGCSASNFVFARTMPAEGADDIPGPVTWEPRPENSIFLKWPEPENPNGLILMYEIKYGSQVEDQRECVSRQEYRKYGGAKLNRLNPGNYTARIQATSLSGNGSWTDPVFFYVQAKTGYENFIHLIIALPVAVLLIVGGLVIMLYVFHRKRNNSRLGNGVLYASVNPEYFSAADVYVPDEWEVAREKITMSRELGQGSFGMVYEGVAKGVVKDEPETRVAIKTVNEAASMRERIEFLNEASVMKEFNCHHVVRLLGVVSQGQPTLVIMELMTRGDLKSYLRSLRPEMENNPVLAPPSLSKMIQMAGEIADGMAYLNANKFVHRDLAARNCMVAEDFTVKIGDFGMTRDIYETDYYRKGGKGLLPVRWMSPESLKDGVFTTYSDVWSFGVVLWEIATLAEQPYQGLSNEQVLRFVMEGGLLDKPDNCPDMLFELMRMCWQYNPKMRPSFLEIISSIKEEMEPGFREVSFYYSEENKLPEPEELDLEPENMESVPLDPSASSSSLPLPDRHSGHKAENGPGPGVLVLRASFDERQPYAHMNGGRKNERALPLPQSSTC
Chain of Vascular endothelial growth factor receptor 2 (P35968 whole entry): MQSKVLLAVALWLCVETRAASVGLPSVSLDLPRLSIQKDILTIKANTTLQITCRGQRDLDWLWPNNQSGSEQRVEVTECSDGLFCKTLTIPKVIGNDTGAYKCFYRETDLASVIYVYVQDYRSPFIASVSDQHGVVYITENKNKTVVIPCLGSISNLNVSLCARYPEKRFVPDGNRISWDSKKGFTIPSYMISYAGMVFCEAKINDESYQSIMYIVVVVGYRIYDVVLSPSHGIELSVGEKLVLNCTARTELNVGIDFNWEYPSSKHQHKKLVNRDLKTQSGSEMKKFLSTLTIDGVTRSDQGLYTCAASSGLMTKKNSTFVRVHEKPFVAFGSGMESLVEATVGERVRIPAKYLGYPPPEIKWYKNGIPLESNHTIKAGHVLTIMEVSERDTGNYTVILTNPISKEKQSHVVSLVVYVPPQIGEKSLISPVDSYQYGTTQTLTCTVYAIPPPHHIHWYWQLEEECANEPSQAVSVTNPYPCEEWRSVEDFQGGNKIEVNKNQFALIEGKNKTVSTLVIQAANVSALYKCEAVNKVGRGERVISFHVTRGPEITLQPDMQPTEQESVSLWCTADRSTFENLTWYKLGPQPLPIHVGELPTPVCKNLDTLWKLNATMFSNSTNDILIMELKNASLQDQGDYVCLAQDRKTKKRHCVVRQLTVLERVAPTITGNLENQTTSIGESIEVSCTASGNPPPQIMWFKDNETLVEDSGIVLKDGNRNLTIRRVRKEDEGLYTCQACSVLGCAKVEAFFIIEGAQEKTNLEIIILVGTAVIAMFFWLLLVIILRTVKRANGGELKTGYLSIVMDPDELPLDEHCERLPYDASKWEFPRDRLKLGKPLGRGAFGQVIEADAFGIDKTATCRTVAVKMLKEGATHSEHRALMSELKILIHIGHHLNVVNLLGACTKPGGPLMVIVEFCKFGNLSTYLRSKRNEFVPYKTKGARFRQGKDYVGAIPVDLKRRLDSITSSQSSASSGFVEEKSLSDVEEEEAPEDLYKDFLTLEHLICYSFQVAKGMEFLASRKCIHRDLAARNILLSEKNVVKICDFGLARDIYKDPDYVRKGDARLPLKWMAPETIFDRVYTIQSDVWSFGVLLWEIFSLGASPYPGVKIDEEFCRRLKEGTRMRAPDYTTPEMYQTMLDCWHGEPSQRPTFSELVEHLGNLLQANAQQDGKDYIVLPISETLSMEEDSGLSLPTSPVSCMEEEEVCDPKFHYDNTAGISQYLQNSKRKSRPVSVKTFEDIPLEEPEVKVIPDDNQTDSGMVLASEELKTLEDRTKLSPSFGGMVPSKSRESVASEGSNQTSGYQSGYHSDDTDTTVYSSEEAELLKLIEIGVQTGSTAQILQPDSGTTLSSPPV
Chain of Platelet-derived growth factor receptor alpha (P16234 whole entry): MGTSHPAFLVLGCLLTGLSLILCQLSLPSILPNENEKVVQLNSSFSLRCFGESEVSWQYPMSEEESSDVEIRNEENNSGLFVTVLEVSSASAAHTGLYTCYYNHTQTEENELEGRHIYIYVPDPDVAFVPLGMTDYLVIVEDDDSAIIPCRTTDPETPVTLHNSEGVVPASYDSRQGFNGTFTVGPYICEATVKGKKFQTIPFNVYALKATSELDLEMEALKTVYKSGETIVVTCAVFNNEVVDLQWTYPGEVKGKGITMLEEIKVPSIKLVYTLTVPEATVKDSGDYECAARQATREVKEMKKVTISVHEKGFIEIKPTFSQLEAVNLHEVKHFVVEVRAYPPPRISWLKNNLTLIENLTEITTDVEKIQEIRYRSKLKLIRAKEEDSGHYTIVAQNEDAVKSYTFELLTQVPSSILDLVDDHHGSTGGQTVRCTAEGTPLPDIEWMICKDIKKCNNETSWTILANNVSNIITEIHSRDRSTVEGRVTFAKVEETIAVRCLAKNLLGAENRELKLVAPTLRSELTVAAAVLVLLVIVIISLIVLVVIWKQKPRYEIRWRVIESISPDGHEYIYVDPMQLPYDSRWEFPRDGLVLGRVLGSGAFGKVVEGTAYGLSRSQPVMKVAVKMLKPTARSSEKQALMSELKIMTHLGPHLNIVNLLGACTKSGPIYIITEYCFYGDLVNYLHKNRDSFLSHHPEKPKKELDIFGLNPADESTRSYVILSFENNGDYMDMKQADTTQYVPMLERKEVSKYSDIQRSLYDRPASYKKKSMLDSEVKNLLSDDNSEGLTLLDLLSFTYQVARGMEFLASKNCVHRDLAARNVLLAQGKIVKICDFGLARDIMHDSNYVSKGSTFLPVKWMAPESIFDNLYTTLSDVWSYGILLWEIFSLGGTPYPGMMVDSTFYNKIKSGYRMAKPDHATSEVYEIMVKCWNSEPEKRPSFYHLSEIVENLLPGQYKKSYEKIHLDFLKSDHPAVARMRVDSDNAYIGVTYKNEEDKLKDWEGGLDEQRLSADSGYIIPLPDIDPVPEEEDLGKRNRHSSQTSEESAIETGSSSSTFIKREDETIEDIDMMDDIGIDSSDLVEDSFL
Chain of Receptor tyrosine-protein kinase erbB-4 (Q15303 whole entry, the tested form may be a part): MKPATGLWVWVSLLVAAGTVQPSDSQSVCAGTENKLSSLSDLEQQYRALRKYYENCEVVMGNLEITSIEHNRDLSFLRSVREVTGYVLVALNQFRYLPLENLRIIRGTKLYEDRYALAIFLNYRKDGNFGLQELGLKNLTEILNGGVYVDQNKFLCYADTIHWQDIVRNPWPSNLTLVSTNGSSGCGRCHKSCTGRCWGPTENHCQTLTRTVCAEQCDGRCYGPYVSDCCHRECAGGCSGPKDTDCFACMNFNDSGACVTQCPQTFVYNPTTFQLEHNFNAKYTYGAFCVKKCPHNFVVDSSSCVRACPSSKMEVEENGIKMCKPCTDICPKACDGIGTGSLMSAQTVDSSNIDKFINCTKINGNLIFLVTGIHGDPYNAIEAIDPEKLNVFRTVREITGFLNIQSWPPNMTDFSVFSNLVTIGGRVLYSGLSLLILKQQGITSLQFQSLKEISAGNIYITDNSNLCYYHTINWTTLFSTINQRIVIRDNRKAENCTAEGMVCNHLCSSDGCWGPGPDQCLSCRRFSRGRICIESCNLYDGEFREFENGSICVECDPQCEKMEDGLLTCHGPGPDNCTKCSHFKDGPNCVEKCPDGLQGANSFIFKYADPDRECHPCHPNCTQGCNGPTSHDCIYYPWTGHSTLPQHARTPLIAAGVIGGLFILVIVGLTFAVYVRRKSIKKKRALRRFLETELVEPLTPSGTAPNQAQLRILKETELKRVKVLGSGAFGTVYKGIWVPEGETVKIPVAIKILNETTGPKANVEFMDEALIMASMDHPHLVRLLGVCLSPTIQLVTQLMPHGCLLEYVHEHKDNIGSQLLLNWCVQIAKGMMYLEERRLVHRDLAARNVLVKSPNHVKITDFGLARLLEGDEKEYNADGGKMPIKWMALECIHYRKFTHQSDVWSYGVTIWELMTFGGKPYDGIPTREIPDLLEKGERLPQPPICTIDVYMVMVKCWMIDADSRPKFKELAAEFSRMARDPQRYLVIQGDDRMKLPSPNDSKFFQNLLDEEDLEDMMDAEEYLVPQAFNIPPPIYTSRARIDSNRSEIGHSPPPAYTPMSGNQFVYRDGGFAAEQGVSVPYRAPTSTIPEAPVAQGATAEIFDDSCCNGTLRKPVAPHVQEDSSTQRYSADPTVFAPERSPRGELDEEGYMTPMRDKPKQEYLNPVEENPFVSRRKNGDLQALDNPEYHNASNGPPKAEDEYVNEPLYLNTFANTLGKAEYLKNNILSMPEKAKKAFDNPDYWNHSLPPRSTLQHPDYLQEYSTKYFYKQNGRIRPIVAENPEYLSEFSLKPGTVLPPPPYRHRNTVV

| SMILES | IC50 [1] | IC50 [2] | IC50 [3] | further results |
| --- | --- | --- | --- | --- |
| Clc1ccc(C2CC(c3ccc(N4CCCCC4)cc3)=NN2c2nc(-c3ccc4ccccc4c3)cs2)cc1 (stereo not drawn) | > 100 µM | > 100 µM | > 100 µM |  |
| COc1ccc(-c2csc(N3N=C(c4ccc(N5CCCCC5)cc4)CC3c3ccc(Cl)cc3)n2)cc1 (stereo not drawn) | > 100 µM | > 100 µM | > 100 µM |  |
| CS(=O)(=O)c1ccc(-c2csc(N3N=C(c4ccc(N5CCCCC5)cc4)CC3c3ccc(Cl)cc3)n2)cc1 (stereo not drawn) | > 100 µM | > 100 µM | > 100 µM |  |
| CS(=O)(=O)c1ccc(-c2csc(N3N=C(c4ccc(N5CCOCC5)cc4)CC3c3ccc(Cl)cc3)n2)cc1 (stereo not drawn) | 10.7 µM | 67.2 µM | > 100 µM |  |
| NC(=S)N1N=C(c2ccc(N3CCCCC3)cc2)CC1c1ccc(Cl)cc1 (stereo not drawn) | 33.8 µM | 22.3 µM | > 100 µM |  |
| FC(F)(F)c1ccc(-c2csc(N3N=C(c4ccc(N5CCOCC5)cc4)CC3c3ccc(Cl)cc3)n2)cc1 (stereo not drawn) | 39.3 µM | > 100 µM | > 100 µM |  |
| Fc1ccc(-c2csc(N3N=C(c4ccc(N5CCCCC5)cc4)CC3c3ccc(Cl)cc3)n2)cc1 (stereo not drawn) | 70.2 µM | 23.1 µM | 71.4 µM |  |
| Clc1ccc(C2CC(c3ccc(N4CCOCC4)cc3)=NN2c2nc(-c3ccccc3)cs2)cc1 (stereo not drawn) | 76.5 µM | 52.1 µM | > 100 µM |  |
| Clc1ccc(C2CC(c3ccc(N4CCOCC4)cc3)=NN2c2nc(-c3ccc(Br)cc3)cs2)cc1 (stereo not drawn) | 94.3 µM | 70.6 µM | > 100 µM |  |
| O=[N+]([O-])c1ccc(-c2csc(N3N=C(c4ccc(N5CCOCC5)cc4)CC3c3ccc(Cl)cc3)n2)cc1 (stereo not drawn) | > 100 µM | > 100 µM | > 100 µM |  |
| NC(=S)N1N=C(c2ccc(N3CCOCC3)cc2)CC1c1ccc(Cl)cc1 (stereo not drawn) | > 100 µM | 37.4 µM | > 100 µM |  |
| Clc1ccc(C2CC(c3ccc(N4CCOCC4)cc3)=NN2c2nc(-c3ccc4ccccc4c3)cs2)cc1 (stereo not drawn) | > 100 µM | > 100 µM | > 100 µM |  |
| Clc1ccc(C2CC(c3ccc(N4CCCCC4)cc3)=NN2c2nc(-c3ccc(Br)cc3)cs2)cc1 (stereo not drawn) | 39.7 µM | > 100 µM | > 100 µM |  |
| N#Cc1ccc(-c2csc(N3N=C(c4ccc(N5CCOCC5)cc4)CC3c3ccc(Cl)cc3)n2)cc1 (stereo not drawn) | 10.8 µM | 8.05 µM | 53.5 µM | IC50 [4]: 41 µM; IC50 [5]: 299 µM; selectivity ratio [6]: > 10; Activity [7]: 68%; Activity [8]: 19%; Activity [9]: 13%; Activity [10]: 51%; Activity [11]: 32%; Activity [12]: 27%; IC50 [13]: 2.28 µM; IC50 [14]: 4.68 µM; IC50 [15]: 10.3 µM; IC50 [16]: > 30 µM; IC50 [17]: 10.8 µM; IC50 [18]: > 30 µM; IC50 [19]: > 30 µM |
| Fc1ccc(-c2csc(N3N=C(c4ccc(N5CCOCC5)cc4)CC3c3ccc(Cl)cc3)n2)cc1 (stereo not drawn) | 8.95 µM | 9.59 µM | 84.4 µM | IC50 [4]: 23.4 µM; IC50 [5]: > 300 µM; selectivity ratio [6]: > 10; Activity [7]: 65%; Activity [8]: 23%; Activity [9]: 12%; Activity [10]: 78%; Activity [11]: 14%; Activity [12]: 8%; IC50 [20]: 23.3 µM; IC50 [13]: 6.96 µM; IC50 [14]: 1.5 µM; IC50 [15]: 3.28 µM; IC50 [16]: 9.79 µM; IC50 [17]: 10.5 µM; IC50 [18]: > 30 µM; IC50 [19]: > 30 µM |
| FC(F)(F)c1ccc(-c2csc(N3N=C(c4ccc(N5CCCCC5)cc4)CC3c3ccc(Cl)cc3)n2)cc1 (stereo not drawn) | 42 µM | 23.7 µM | 64.2 µM |  |
| O=[N+]([O-])c1ccc(-c2csc(N3N=C(c4ccc(N5CCCCC5)cc4)CC3c3ccc(Cl)cc3)n2)cc1 (stereo not drawn) | > 100 µM | > 100 µM | > 100 µM |  |
| Cc1ccc(-c2csc(N3N=C(c4ccc(N5CCOCC5)cc4)CC3c3ccc(Cl)cc3)n2)cc1 (stereo not drawn) | > 100 µM | > 100 µM | > 100 µM |  |
| Clc1ccc(-c2csc(N3N=C(c4ccc(N5CCCCC5)cc4)CC3c3ccc(Cl)cc3)n2)cc1 (stereo not drawn) | 46.4 µM | > 100 µM | > 100 µM |  |
| Cc1ccc(-c2csc(N3N=C(c4ccc(N5CCCCC5)cc4)CC3c3ccc(Cl)cc3)n2)cc1 (stereo not drawn) | > 100 µM | > 100 µM | > 100 µM |  |
| N#Cc1ccc(-c2csc(N3N=C(c4ccc(N5CCCCC5)cc4)CC3c3ccc(Cl)cc3)n2)cc1 (stereo not drawn) | 11.2 µM | 9.76 µM | 38.7 µM | IC50 [4]: 29.5 µM; IC50 [5]: 299 µM; selectivity ratio [6]: > 10; Activity [7]: 77%; Activity [8]: 15%; Activity [9]: 8%; Activity [10]: 63%; Activity [11]: 27%; Activity [12]: 10%; IC50 [20]: 4.71 µM; IC50 [13]: > 30 µM; IC50 [14]: 29 µM; IC50 [15]: > 30 µM; IC50 [16]: > 30 µM; IC50 [17]: 25.6 µM; IC50 [18]: > 30 µM; IC50 [19]: > 30 µM |
| Clc1ccc(-c2csc(N3N=C(c4ccc(N5CCOCC5)cc4)CC3c3ccc(Cl)cc3)n2)cc1 (stereo not drawn) | 19 µM | 14.9 µM | 75.9 µM |  |
| Clc1ccc(C2CC(c3ccc(N4CCCCC4)cc3)=NN2c2nc(-c3ccccc3)cs2)cc1 (stereo not drawn) | 64.2 µM | 28.4 µM | 65.8 µM |  |
| COc1ccc(-c2csc(N3N=C(c4ccc(N5CCOCC5)cc4)CC3c3ccc(Cl)cc3)n2)cc1 (stereo not drawn) | > 100 µM | > 100 µM | > 100 µM |  |
| C#Cc1cccc(Nc2ncnc3cc(OCCOC)c(OCCOC)cc23)c1 [ERLOTINIB] | 22.4 µM | 8.24 µM | 27.3 µM | IC50 [4]: 12.1 µM; IC50 [5]: 39.3 µM; Activity [7]: 72%; Activity [8]: 19%; Activity [9]: 9%; Activity [10]: 66%; Activity [11]: 21%; Activity [12]: 13% |
